# “Also recorded” adds a separate entry of the source. Like-named read-outs stand apart in the source and are kept apart here.
# Experiments:
# [1] = target: DiaaNaC (diarylamidine-activated Na+ channel) (Novocrania anomala, UniProt A0AAU8BSW0); test: Two-electrode voltage clamp of Xenopus laevis oocytes expressing WT DiaaNaC; assay type: cell-based; details: for inward currents in absence of extracellular Na+: 1 mM compound, 140 KCl instead of NaCl; for activation of DiaaNaC (agonist activity): compound at 1 mM; for reversal potential (Erev) of pentamidine-gated current: n = 5
# Method: (§1) Before electrophysiological recordings or surface expression determination, the oocytes were cultured for 3 days at 18 °C in 50% Leibowitz medium (L1518, Merck), supplemented with 0.25 mg/ml gentamicin, 1 mM L-glutamine, and 15 mM Hepes (pH 7.6). For surface expression detection, mouse anti-Myc tag monoclonal IgG1 antibody (MA121316, Fisher Scientific) was used to detect the myc tag attached to the 3′-end of all the constructs used in this work, and the protocol previously used in our lab was followed ([47]) using a Zeiss Axio Scope A1 microscope. The intensity of the expression signal was quantified by tracing a perpendicular line across the oocyte membrane and measuring the gray values with ImageJ software ([48]).
# Whole cell currents were recorded from oocytes by two-electrode voltage clamp using an OC-725D amplifier (Warner Instruments) controlled via an Axon Digitata 1550B interface and pClamp v11 (Molecular Devices), acquired at 1 kHz, and filtered at 200 Hz. Currents were analyzed in pClamp v10.7 software (Molecular Devices) and additionally filtered at 10 Hz for display in figures. Oocytes were clamped at −60 mV, unless otherwise indicated, and continuously perfused with a bath solution containing (in mM): 140 NaCl, 1.8 BaCl2, and 10 Hepes. The pH was adjusted to 7.5 with NaOH, HCl, or KOH, as appropriate. For current–voltage relationships where K^+ replaced Na^+, KCl replaced NaCl in the above bath solution. In most experiments, activating solution was applied to oocytes in between resting periods of at least 30 to 60 s. After retrieving current amplitude from pClamp, all data were analyzed in Prism v9 (GraphPad Software). Currents were normalized by dividing by the maximum current at that oocyte, giving “I/Imax” in most concentration–response graphs. For graphs in figures and for calculating half-maximal effective (or inhibitory) concentration (EC50 or IC50) values, variable slope nonlinear regression was used in Prism v9, with the equation Y = Bottom + (Top-Bottom)/ […] 10^∧((LogEC50-X)∗HillSlope)), and maximum was constrained to one and minimum to zero. Curves in figures are fit to the mean data points. EC50 and IC50 values reported in text and used in statistical comparisons are means from curve fits to data on individual oocytes.
# DiaaNaC G6′S = test: Two-electrode voltage clamp, DiaaNaC G6′S mutant in oocytes; assay type: cell-based, Novocrania anomala
# Text: (§2) The DiaaNaC full-length coding sequence was amplified by PCR from N. anomala cDNA and subcloned via SalI and BamHI sites into a pSP64 (polyA) vector (P1241, Promega) modified to contain the X. laevis globin 5′ and 3′ UTRs and a C-terminal Myc-tag linked to the final DiaaNaC residue via Gly-Ser linker (the BamHI site) (see ([20]) for full vector sequence). The cDNA sequence was deposited in NCBI GenBank accession number PP942623. Recombinant PCR with Phusion High-Fidelity DNA polymerase (F-549L, Thermo Fisher Scientific) was used to perform site-directed mutagenesis, as described previously ([45]). […] EcoRI (FD0274, Thermo Fisher Scientific) was used to linearize the cDNAs via a site shortly after the poly(A) sequence, and the mMESSAGE mMACHINE SP6 Transcription Kit (AM1340, Thermo Fisher Scientific) was used to synthesize cRNA.
# as §1
# (§3) Whole cell currents were recorded from oocytes by two-electrode voltage clamp using an OC-725D amplifier (Warner Instruments) controlled via an Axon Digitata 1550B interface and pClamp v11 (Molecular Devices), acquired at 1 kHz, and filtered at 200 Hz. Currents were analyzed in pClamp v10.7 software (Molecular Devices) and additionally filtered at 10 Hz for display in figures. […] After retrieving current amplitude from pClamp, all data were analyzed in Prism v9 (GraphPad Software). […]
# DiaaNaC L70S = test: Two-electrode voltage clamp, DiaaNaC L70S mutant in oocytes; assay type: cell-based, Novocrania anomala; details: 0 mV
# Text: The DiaaNaC full-length coding sequence was amplified by PCR from N. anomala cDNA and subcloned via SalI and BamHI sites into a pSP64 (polyA) vector (P1241, Promega) modified to contain the X. laevis globin 5′ and 3′ UTRs and a C-terminal Myc-tag linked to the final DiaaNaC residue via Gly-Ser linker (the BamHI site) (see ([20]) for full vector sequence). The cDNA sequence was deposited in NCBI GenBank accession number PP942623. Recombinant PCR with Phusion High-Fidelity DNA polymerase (F-549L, Thermo Fisher Scientific) was used to perform site-directed mutagenesis, as described previously ([45]). […]
# Before electrophysiological recordings or surface expression determination, the oocytes were cultured for 3 days at 18 °C in 50% Leibowitz medium (L1518, Merck), supplemented with 0.25 mg/ml gentamicin, 1 mM L-glutamine, and 15 mM Hepes (pH 7.6). […] The intensity of the expression signal was quantified by tracing a perpendicular line across the oocyte membrane and measuring the gray values with ImageJ software ([48]).
# Whole cell currents were recorded from oocytes by two-electrode voltage clamp using an OC-725D amplifier (Warner Instruments) controlled via an Axon Digitata 1550B interface and pClamp v11 (Molecular Devices), acquired at 1 kHz, and filtered at 200 Hz. Currents were analyzed in pClamp v10.7 software (Molecular Devices) and additionally filtered at 10 Hz for display in figures. […]
# DiaaNaC E82A = test: Two-electrode voltage clamp, DiaaNaC E82A mutant in oocytes; assay type: cell-based, Novocrania anomala
# Text: as §2, §1, §3
# DiaaNaC E358A = test: Two-electrode voltage clamp, DiaaNaC E358A mutant in oocytes; assay type: cell-based, Novocrania anomala
# Text: as §2, §1, §3
# Sequence of DiaaNaC (diarylamidine-activated Na+ channel) (A0AAU8BSW0 entry or part of it): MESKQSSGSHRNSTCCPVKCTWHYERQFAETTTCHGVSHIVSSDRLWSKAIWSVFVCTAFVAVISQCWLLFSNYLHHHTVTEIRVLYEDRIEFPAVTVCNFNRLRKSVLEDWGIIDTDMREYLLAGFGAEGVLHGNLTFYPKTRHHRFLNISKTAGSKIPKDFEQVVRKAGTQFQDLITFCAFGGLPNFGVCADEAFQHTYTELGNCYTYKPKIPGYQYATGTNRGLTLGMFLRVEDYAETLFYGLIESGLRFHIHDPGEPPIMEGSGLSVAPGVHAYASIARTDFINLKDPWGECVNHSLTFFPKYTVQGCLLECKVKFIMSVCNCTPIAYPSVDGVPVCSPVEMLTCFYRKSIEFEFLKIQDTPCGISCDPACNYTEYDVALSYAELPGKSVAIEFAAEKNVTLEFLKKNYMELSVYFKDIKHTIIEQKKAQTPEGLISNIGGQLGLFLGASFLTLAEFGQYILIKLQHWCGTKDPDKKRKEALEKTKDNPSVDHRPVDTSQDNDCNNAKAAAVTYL
structure (smiles),measurement,setting,value
"N=C(N)c1ccc(-c2cc3ccc(C(=N)N)cc3[nH]2)cc1 [DAPI, 4′,6-diamidino-2-phenylindole]",inward currents in absence of extracellular Na+,[1]; −60 mV,"tiny, if any"
"Cc1nc(N=C(N)N)nc2ccccc12 [GMQ, 2-(4-methylquinazolin-2-yl)guanidine]",activation of DiaaNaC (agonist activity),[1]; −60 mV,none of these compounds activated
"C[C@H](CCC(=O)O)[C@H]1CC[C@H]2[C@@H]3[C@@H](O)C[C@@H]4C[C@H](O)CC[C@]4(C)[C@H]3CC[C@]12C [Ursodeoxycholic acid, ursodeoxycholic acid]",current activated,"[1]; UDCA 2 mM, −60 mV, n = 7",73.1 ± 10 nA
NC(N)=NCCCCN=C(N)N [arcaine],activation of DiaaNaC (agonist activity),[1]; −60 mV,neither activated; also recorded: none of these compounds activated
N=C(N)c1ccc(/N=N/Nc2ccc(C(=N)N)cc2)cc1 [diminazene],inward currents in absence of extracellular Na+,[1]; −60 mV,"tiny, if any"
same,concentration that activates DiaaNaC,[1]; WT,≥ 300 µM
same,concentration that blocks DiaaNaC,[1]; WT,≥ 1 mM
same,effect on constitutive current,"[1]; diminazene 1 mM, absence of Ca2+",without inhibiting the constitutive current
same,inward currents activated,"[1]; diminazene 1 mM, absence of Ca2+, −60 mV, n = 7",1.0 ± 0.2 μA
same,EC50,"[1]; holding potential 0 mV, WT, read-out: diminazene EC50 for activation",409 ± 71 µM
same,EC50,"[1]; −60 mV, absence of Ca2+, WT, read-out: EC50 for activation of DiaaNaC",287 µM
same,inhibition at 1000 µM,"[1]; −100 mV, 1 mM diminazene, read-out: block of the agonist-gated current",~100%
same,diminazene potency compared to WT,DiaaNaC G6′S; 0 mV,significantly reduced
same,diminazene agonist potency compared to WT,DiaaNaC G6′S; −60 mV,decrease in agonist potency
same,channel block by diminazene,"DiaaNaC G6′S; −60 mV, even at 3 mM diminazene",block was not evident
same,diminazene-gated currents,DiaaNaC L70S,abolished
same,diminazene potency compared to WT,DiaaNaC E82A; 0 mV,significantly reduced
same,diminazene agonist potency compared to WT,DiaaNaC E82A; −60 mV,decrease in agonist potency
same,channel block by diminazene,"DiaaNaC E82A; −60 mV, 1 and 3 mM diminazene",noticeable block develops
same,diminazene potency compared to WT,DiaaNaC E358A; 0 mV,significantly reduced
same,diminazene agonist potency compared to WT,DiaaNaC E358A; −60 mV,decrease in agonist potency
same,diminazene concentration at which block occurs,DiaaNaC E358A; −60 mV,3 mM
N=C(N)c1ccc(OCCCCCOc2ccc(C(=N)N)cc2)cc1 [pentamidine],reversal potential (Erev) of pentamidine-gated current,"[1]; 150 μM pentamidine, extracellular NaCl",53.5 ± 5.0 mV
same,reversal potential (Erev) of pentamidine-gated current,"[1]; 450 μM pentamidine, extracellular NaCl",57.6 ± 3.4 mV
same,pentamidine EC50 in the presence of amiloride,[1]; 600 μM amiloride,not significantly altered
same,EC50,"[1]; EC50 for activation of DiaaNaC, −60 mV, absence of Ca2+, WT",592 ± 30.7 µM
same,reversal potential (Erev) of pentamidine-gated current,"[1]; K+ the only monovalent cation in extracellular solution, pentamidine 450 μM, estimated",−12.2 ± 4.6 mV
same,EC50,"[1]; pentamidine EC50, +10 mV, n = 4",959 ± 80.7 µM
same,EC50,"[1]; pentamidine EC50, +80 mV, n = 4",1030 ± 101 µM
same,EC50,"[1]; pentamidine EC50, −100 mV",471 ± 38.4 µM
same,EC50,"[1]; pentamidine EC50 with Ca2+, 1.8 mM Ca2+, n = 6",1000 ± 100 µM
same,block of the agonist-gated current,"[1]; −100 mV, 1 mM pentamidine",no such block
NCCCCNCCCN [spermidine],activation of DiaaNaC (agonist activity),[1]; −60 mV,neither activated
NCCCNCCCCNCCCN [spermine],activation of DiaaNaC (agonist activity),[1]; −60 mV,neither activated; also recorded: none of these compounds activated

# — publication PMC11750451, “Diarylamidine activation of a brachiopod DEG/ENaC/ASIC channel” (The Journal of Biological Chemistry, 2024)
